One assay relates to HCC-366. Description: relative viability (nuclei count vs DMSO), 5 days (fraction); higher = more cells survive. Conditions: first compound 0.8 µM. The gist of the method:
(§1)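 Nuclei were stained with Hoechst during a one-step fixation (final 0.05% Triton X-100, 1% formaldehyde, 1 ug/ml Hoechst) carried out 5 days after dosing, then counted on 4× images. The cells, lung cancer lines in 1536-well plates, had been dosed by pin tool the day after seeding with one drug alone or a fixed anchor-drug dose plus five library-drug doses (not always all listed) in √10 steps. Relative viability is the nuclei count in treated wells divided by that in vehicle wells, and each value is the median of duplicate plates.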
On to `CCCCCCCCCCCC1=C(O)C(=O)C=C(O)C1=O` [Embelin] + CC(=O)c1c(C)c2cnc(Nc3ccc(N4CCNCC4)cn3)nc2n(C2CCCC2)c1=O [Palbociclib] (partner 0.5 µM), for which the relative viability worked out at 0.391.

Still in this assay, the particulars now being: first compound 2.53 µM.
On to `CCCCCCCCCCCC1=C(O)C(=O)C=C(O)C1=O` [Embelin] + N=C(N)NC(=N)NCCc1ccccc1 [Phenformin] (partner 250 µM), for which the relative viability turned out to be 0.644.

`CCCCCCCCCCCC1=C(O)C(=O)C=C(O)C1=O` [Embelin] + Cc1nc(Nc2ncc(C(=O)Nc3c(C)cccc3Cl)s2)cc(N2CCN(CCO)CC2)n1 [Dasatinib] (partner 0.075 µM) came in with a relative viability of 0.984.

As to `CCCCCCCCCCCC1=C(O)C(=O)C=C(O)C1=O` [Embelin] + NC(=O)Nc1cc(-c2cccc(F)c2)sc1C(=O)N[C@H]1CCCNC1 [AZD7762] (partner 0.2 µM), the relative viability stood at 0.291.

For `CCCCCCCCCCCC1=C(O)C(=O)C=C(O)C1=O` [Embelin] + CC(=O)c1c(C)c2cnc(Nc3ccc(N4CCNCC4)cn3)nc2n(C2CCCC2)c1=O [Palbociclib] (partner 0.5 µM), the relative viability was determined as 0.49.

The same assay, now with this note: first compound 8 µM.
`CCCCCCCCCCCC1=C(O)C(=O)C=C(O)C1=O` [Embelin] + N=C(N)NC(=N)NCCc1ccccc1 [Phenformin] (partner 250 µM) displayed a relative viability of 0.676.

As for `CCCCCCCCCCCC1=C(O)C(=O)C=C(O)C1=O` [Embelin] + Cc1nc(Nc2ncc(C(=O)Nc3c(C)cccc3Cl)s2)cc(N2CCN(CCO)CC2)n1 [Dasatinib] (partner 0.075 µM), the relative viability was determined as 0.557.

`CCCCCCCCCCCC1=C(O)C(=O)C=C(O)C1=O` [Embelin] + NC(=O)Nc1cc(-c2cccc(F)c2)sc1C(=O)N[C@H]1CCCNC1 [AZD7762] (partner 0.2 µM) yielded a relative viability of 0.281.

Compound `CCCCCCCCCCCC1=C(O)C(=O)C=C(O)C1=O` [Embelin] + CC(=O)c1c(C)c2cnc(Nc3ccc(N4CCNCC4)cn3)nc2n(C2CCCC2)c1=O [Palbociclib] (partner 0.5 µM) returned a relative viability of 0.453.

For the next assay, the system named is HCC-44. The assay is described as above. As to conditions: first compound 0.08 µM. The gist of the method: as §1
For the compound `CCCCCCCCCCCC1=C(O)C(=O)C=C(O)C1=O` [Embelin] + N=C(N)NC(=N)NCCc1ccccc1 [Phenformin] (partner 250 µM), the relative viability amounted to 0.175.

`CCCCCCCCCCCC1=C(O)C(=O)C=C(O)C1=O` [Embelin] + CCNC(=O)c1noc(-c2cc(C(C)C)c(O)cc2O)c1-c1ccc(CN2CCOCC2)cc1 [Luminespib] (partner 0.01 µM) had a relative viability of 1.04.

In turn, `CCCCCCCCCCCC1=C(O)C(=O)C=C(O)C1=O` [Embelin] + NC(=O)Nc1cc(-c2cccc(F)c2)sc1C(=O)N[C@H]1CCCNC1 [AZD7762] (partner 0.2 µM) registered a relative viability of 1.07.

As for `CCCCCCCCCCCC1=C(O)C(=O)C=C(O)C1=O` [Embelin] + CC(=O)c1c(C)c2cnc(Nc3ccc(N4CCNCC4)cn3)nc2n(C2CCCC2)c1=O [Palbociclib] (partner 0.5 µM), the relative viability worked out at 0.951.

Staying with this assay, now noted: first compound 0.8 µM.
Take `CCCCCCCCCCCC1=C(O)C(=O)C=C(O)C1=O` [Embelin] + N=C(N)NC(=N)NCCc1ccccc1 [Phenformin] (partner 250 µM): the relative viability is 0.252.

With `CCCCCCCCCCCC1=C(O)C(=O)C=C(O)C1=O` [Embelin] + CCNC(=O)c1noc(-c2cc(C(C)C)c(O)cc2O)c1-c1ccc(CN2CCOCC2)cc1 [Luminespib] (partner 0.01 µM), the relative viability was determined as 1.1.

`CCCCCCCCCCCC1=C(O)C(=O)C=C(O)C1=O` [Embelin] + NC(=O)Nc1cc(-c2cccc(F)c2)sc1C(=O)N[C@H]1CCCNC1 [AZD7762] (partner 0.2 µM) displayed a relative viability of 0.994.

In turn, `CCCCCCCCCCCC1=C(O)C(=O)C=C(O)C1=O` [Embelin] + CC(=O)c1c(C)c2cnc(Nc3ccc(N4CCNCC4)cn3)nc2n(C2CCCC2)c1=O [Palbociclib] (partner 0.5 µM) returned a relative viability of 1.02.

Still in this assay, the particulars now being: first compound 2.53 µM.
In turn, `CCCCCCCCCCCC1=C(O)C(=O)C=C(O)C1=O` [Embelin] + N=C(N)NC(=N)NCCc1ccccc1 [Phenformin] (partner 250 µM) gave a relative viability of 0.0967.

For the compound `CCCCCCCCCCCC1=C(O)C(=O)C=C(O)C1=O` [Embelin] + CCNC(=O)c1noc(-c2cc(C(C)C)c(O)cc2O)c1-c1ccc(CN2CCOCC2)cc1 [Luminespib] (partner 0.01 µM), the relative viability stood at 1.37.

As for `CCCCCCCCCCCC1=C(O)C(=O)C=C(O)C1=O` [Embelin] + NC(=O)Nc1cc(-c2cccc(F)c2)sc1C(=O)N[C@H]1CCCNC1 [AZD7762] (partner 0.2 µM), the relative viability is 0.999.

`CCCCCCCCCCCC1=C(O)C(=O)C=C(O)C1=O` [Embelin] + CC(=O)c1c(C)c2cnc(Nc3ccc(N4CCNCC4)cn3)nc2n(C2CCCC2)c1=O [Palbociclib] (partner 0.5 µM) had a relative viability of 0.984.

Still in this assay, the particulars now being: first compound 8 µM.
With `CCCCCCCCCCCC1=C(O)C(=O)C=C(O)C1=O` [Embelin] + N=C(N)NC(=N)NCCc1ccccc1 [Phenformin] (partner 250 µM), the relative viability was 0.0958.

With `CCCCCCCCCCCC1=C(O)C(=O)C=C(O)C1=O` [Embelin] + CCNC(=O)c1noc(-c2cc(C(C)C)c(O)cc2O)c1-c1ccc(CN2CCOCC2)cc1 [Luminespib] (partner 0.01 µM), the relative viability was determined as 0.852.

Compound `CCCCCCCCCCCC1=C(O)C(=O)C=C(O)C1=O` [Embelin] + NC(=O)Nc1cc(-c2cccc(F)c2)sc1C(=O)N[C@H]1CCCNC1 [AZD7762] (partner 0.2 µM) yielded a relative viability of 1.11.

As for `CCCCCCCCCCCC1=C(O)C(=O)C=C(O)C1=O` [Embelin] + CC(=O)c1c(C)c2cnc(Nc3ccc(N4CCNCC4)cn3)nc2n(C2CCCC2)c1=O [Palbociclib] (partner 0.5 µM), the relative viability worked out at 0.979.

The test system of a further assay is ChaGo-K-1. The description is as above. Conditions: first compound 0.08 µM. A digest of the protocol: as §1
In the case of `CCCCCCCCCCCC1=C(O)C(=O)C=C(O)C1=O` [Embelin] + N=C(N)NC(=N)NCCc1ccccc1 [Phenformin] (partner 250 µM), the relative viability is 0.547.

For the compound `CCCCCCCCCCCC1=C(O)C(=O)C=C(O)C1=O` [Embelin] + CCNC(=O)c1noc(-c2cc(C(C)C)c(O)cc2O)c1-c1ccc(CN2CCOCC2)cc1 [Luminespib] (partner 0.01 µM), the relative viability was found to be 0.529.

For the origin of these results see the supplement of paper PMC10307832.
